# Reference: patent US20250325562A1, “Intravenous Ganaxolone Formulations and Methods of Use in Treating Status Epilepticus and Other Seizure Disorders” (MARINUS PHARMACEUTICALS, INC., priority 2015, published 2025)
# Experiments:
# [1] = Phase solubility of ganaxolone in aqueous CAPTISOL solutions, HPLC; format: physicochemical; settings: for Ganaxolone conc. by HPLC: 42 hours equilibrium
# Protocol: Ganaxolone solubility in aqueous CAPTISOL solution was first determined by constructing a phase solubility diagram. Excess ganaxolone was shaken in aqueous CAPTISOL solutions of known concentrations for 42 hours to reach equilibrium. The ganaxolone solution was filtered into HPLC vials through 0.45 μm syringe filters. The filtrates were assayed for ganaxolone concentration by HPLC. Moles of ganaxolone in solution against moles of CAPTISOL added were plotted.
# [2] = Ganaxolone concentration reached in 30% Captisol solutions (with additives or dry mixing), HPLC; format: physicochemical
# Protocol: 500 μl of 10% aqueous Polysorbate 80 solution in a 20 ml scintillation vial were combined with powdered ganaxolone (50 mg). The mixture was stirred to wet the ganaxolone. Solid Captisol (3.2 g), sufficient to form a 30% Captisol solution, was then added to the vial and the vial contents were mixed. Deionized water (8.0 g) was then added and the mixture was vigorously stirred at room temperature overnight to obtain a hazy solution. An aliquot was filtered through 0.2 μm syringe filter and ganaxolone concentration was assayed by HPLC to be 4.28 mg/ml.
# Ganaxolone was vigorously stirred in 30% Captisol in the presence of 10% v/v ethanol overnight to obtain a 3.16 mg/ml ganaxolone solution. • (b) Ganaxolone-30% Captisol solution containing glycerin
# Ganaxolone was vigorously stirred in 30% Captisol in the presence of 10% v/v glycerin overnight to obtain a 3.45 mg/ml ganaxolone solution. • (c) Ganaxolone-30% Captisol solution containing propylene glycol
# Ganaxolone was vigorously stirred in 30% Captisol in the presence of 10% v/v propylene glycol overnight to obtain a 2.53 mg/ml ganaxolone solution.
# Powdered ganaxolone (125 mg) was charged into 100 ml beaker. Captisol powder (7.9 g) was then added to the beaker. The mixture was mixed by stirring with a magnetic stir bar for 5 min. Deionized water (20.1 g) was weighed into a plastic cup. About half of the water was added into the beaker and the contents were vigorously stirred for 30 minutes to obtain a homogeneous mixture. The remaining water was added and the beaker was covered with paraffin film.
structure (smiles),measurement,setting,value
"CC(=O)[C@H]1CC[C@H]2[C@@H]3CC[C@H]4C[C@](C)(O)CC[C@]4(C)[C@H]3CC[C@]12C [Ganaxolone, 3α-hydroxy, 3β-methyl-5α-pregnan-20-one]",Ganaxolone conc.,[1]; CAPTISOL 0 mg/mL,0 mM
same,Ganaxolone conc. by HPLC,[1]; CAPTISOL 0 mg/mL,Not detectable
same,Ganaxolone conc.,[1]; CAPTISOL 25 mg/mL (0.0116 M),1.3 mM
same,Ganaxolone conc. by HPLC,[1]; CAPTISOL 25 mg/mL (0.0116 M),0.43 mg/mL
same,Ganaxolone conc.,[1]; CAPTISOL 50 mg/mL (0.0231 M),2.7 mM
same,Ganaxolone conc. by HPLC,[1]; CAPTISOL 50 mg/mL (0.0231 M),0.88 mg/mL
same,Ganaxolone conc.,[1]; CAPTISOL 100 mg/mL (0.0462 M),5.6 mM
same,Ganaxolone conc. by HPLC,[1]; CAPTISOL 100 mg/mL (0.0462 M),1.86 mg/mL
same,Ganaxolone conc.,[1]; CAPTISOL 200 mg/mL (0.0925 M),10.9 mM
same,Ganaxolone conc. by HPLC,[1]; CAPTISOL 200 mg/mL (0.0925 M),3.63 mg/mL
same,Ganaxolone conc.,[1]; CAPTISOL 400 mg/mL (0.185 M),23.1 mM
same,Ganaxolone conc. by HPLC,[1]; CAPTISOL 400 mg/mL (0.185 M),7.68 mg/mL
same,ganaxolone concentration by HPLC,"[2]; 30% Captisol with Polysorbate 80, stirred overnight at room temperature, 0.2 μm filtered",4.28 mg/mL
same,ganaxolone concentration of solution,"[2]; 30% Captisol, 10% v/v ethanol, stirred overnight",3.16 mg/mL
same,ganaxolone concentration of solution,"[2]; 30% Captisol, 10% v/v glycerin, stirred overnight",3.45 mg/mL
same,ganaxolone concentration of solution,"[2]; 30% Captisol, 10% v/v propylene glycol, stirred overnight",2.53 mg/mL
same,ganaxolone concentration after prolonged stirring,"[2]; 30% Captisol, dry mixing, after 90 hours of stirring",unchanged
same,ganaxolone concentration of solution,"[2]; 30% Captisol, prior dry mixing of ganaxolone and Captisol, stirred overnight at room temperature",4.61 mg/mL
